According to patent US7417150B2, “Azoles having an insecticidal action” (Bayer CropScience AG, priority 2001, dated 2008):

Key:
Meloidogyne incognita = experiment: Meloidogyne test (nematicidal action, gall formation on lettuce roots); assay type: in vivo; details: 20 ppm active compound; 100% = no galls found, 0% = galls as untreated control; lettuce in sand
Description: To produce a suitable preparation of active compound, 1 part by weight of active compound is mixed with the stated amounts of solvent and emulsifier, and the concentrate is diluted with water to the desired concentration.
Containers are filled with sand, solution of active compound, Meloidogyne incognita egg larvae suspension and lettuce seeds. The lettuce seeds germinate and the plants develop. On the roots, galls are formed.
After the desired period of time, the nematicidal action is determined in % using gall formation as a measure. 100% means that no galls were found; 0% means that the number of galls on the treated plants corresponds to that of the untreated control.

[1] = system: Adults of Ctenocephalides felis; experiment: Test with cat fleas / oral uptake; assay type: in vivo; details: 100 ppm in citrated cattle blood, mortality after 24 h, strain "Georgi", at least 25% kill judged effective, read-out: % action (mortality of larvae)
Description: Test with Cat Fleas/Oral Uptake
To produce a suitable preparation, a suitable solution of active compound is prepared from 20 mg of active compound and 1 ml of DMSO. 20 μl of this formulation are added to 4 ml of citrated cattle blood and stirred.
20 unfed adult fleas (Ctenocephalides felis, strain “Georgi”) are placed into a chamber (Ø 5 cm) whose top and bottom are closed with gauze. A metal cylinder whose underside is covered with parafilm is placed onto the chamber. The cylinder contains the 4 ml of blood/active compound formulation which can be taken up by the fleas through the parafilm membrane. Whereas the blood is warmed to 37° C., the temperature in the area of the flea chambers is adjusted to 25° C. Controls are mixed with the same volume of DMSO, without addition of a compound. The determinations are carried out triplicate.
After 24 h, the mortality in % is determined.
Compounds which effect an at least 25% kill of the fleas within 24 h are judged to be effective.

Row | SMILES | Kill rate in % after 14 days (Meloidogyne incognita) [%] | mortality at 100 ppm [1] [%]
1 | CN(Cc1ccc(Cl)nc1)C1=N/C(=N/C#N)SC1 [drawing 50] | 98 | –
2 | CN(Cc1ccc(Cl)nc1)C1=N/C(=N/C#N)SC1 [Example I-1, 4-(N-(6-chloro-3-pyridylmethyl)-N-methyl)amino-2-cyanimino-2,5-dihydro-[1,3]-thiazoline] | – | 30
